Assay results published in patent US20240369576A1, “ASSAYS FOR ALPHA-DYSTROGLYCAN GLYCOSYLATION AND METHODS FOR USING SAME” (ML Bio Solutions Inc., priority 2023, published 2024).
Entries after “also recorded” stand apart in the source; their conditions may differ.

Experiments:
[1] = tested on: αDG glycosylation in P448L mutant FKRP mice; assay: Multiplexed Western blot of total and glycosylated αDG in muscle of P448L mutant FKRP mice treated with 5% Ribitol; assay type: in vivo, mouse; conditions: 5% Ribitol treated P448L mice vs untreated P448L mice, heart muscle and TA lysates
Method: Murine Mouse Tissue: Murine muscle tissue samples from healthy, [MUT], and […] mutant mice were stored at -80° C. until analysis. Tissue Processing: Tissue samples were processed using a TissueLyzer IITM (Qiagen®). Approximately 250 milligrams (mg) of tissue was placed in a 2 mL microtube with a steel bead and 1 mL of Radioimmunoprecipitation assay buffer (RIPA) buffer supplemented with protease and phosphatase inhibitors. The microtubes were subjected to three cycles of disruption (2 minutes at 25 Hertz (Hz)) in the TissueLyzer IITM. Lysates were clarified by centrifugation and the supernatant was transferred to fresh tubes and protein concentration in lysate was determined using a BCA assay (Pierce®). […] The membrane was visualized on an Odyssey CLxTM imager (LiCorTM) and intensities of the 700 and 800 nm channels were recorded. […] Signal intensities were normalized to total protein and the ratio of 700 nm normalized signal/800 nm normalized signal was determined. Linear fits were assessed where applicable using the linear regression function of PrismTM. Statistical significance was determined using an unpaired t-test using PrismTM (e.g., using the p-value for the parameters slope and intercept). StainFree gel image is quantitated using ImageLabTM software to analyze the image from the ChemiDocTM Imaging System. […] Linear fits were assessed were applicable using a linear regression function. […]

[2] = tested on: serum creatine kinase (CK); assay: Open label Phase 2 study of ribitol in LGMD2I/R9: serum creatine kinase; assay type: in vivo, human
Excerpt: (§1) Methods: This study is an open label dose escalation study of patients with LGMD2I/R9. Part 1 of the study involved three dose cohorts (6 g QD, 6 g BID and 12 g BID) treated for 3 months. During Parts 2 (target maximal dose) and 3 (ongoing OLE), all patients received 12 g BID, dose adjusted for lower weight. FIG. 17 schematically illustrates the details of the clinical study. Briefly, the study includes 3 parts: a 90 day dose escalation phase (Part 1), a 90 day maximum dose phase (Part 2), and a 24 month long term extension phase (Part 3). In Part 1, 14 total patients are studied across three cohorts (6 g QD, 6 g BID, and 12 g BID ribitol). After Part 1, all patients transition to the highest dose, 12 g BID ribitol. Dosing adjustments in Part 2 were as follows: for patients with weight >70 kg: 12 g BID; for patients with weight between 50-70 kg: 9 g BID; and for patients with weight between 30-50 kg: 6 g BID. Dosing adjustments in Part 3 were as follows: for patients with weight >50 kg: 12 g BID; and for patients with weight between 30-50 kg: 9 g BID. Key endpoints for the study include NSAD; 10 or 100 meter walk test; FVC; PUL2.0; glycosylated αDG levels; and serum creatine kinase (CK).

[3] = tested on: alpha-DG glycosylation in LGMD2I mouse models; conditions: cited from earlier work
patients with LGMD2I/R9 [4] = assay: Open label Phase 2 study of ribitol in LGMD2I/R9: ambulatory and clinical measures (NSAD, 10MWT, 100MTT); assay type: in vivo, human; conditions: following 15 months of ribitol treatment, vs natural history decline
Excerpt: as §1, with “Key inclusion criteria for the study include age between 12-55 years at enrollment; genetically confirmed LGMD2I/R9 diagnosis; body weight of at least 30 kg; and ability to complete a […] walk test in <12 seconds unaided for moderate disease, or unable to complete the 10MWT for severe disease. Key” for “Key”

glycosylated αDG = assay: Open label Phase 2 study of ribitol in LGMD2I/R9: glycosylated αDG in tibialis anterior biopsies by Western blot; assay type: in vivo, human
Method: Tissue Lysis and sample preparation: Tissue samples were processed in lysis buffer, supplemented with protease inhibitors. Total protein in lysate was determined by BCA (Thermo Fisher) for RIPA and protein 660 kit (Thermo Fisher) for SDS-Urea and tested at 60 μg for CP Heterozygous samples and 40 μg for Homozygous samples. Differential protein loading is used for different patients to compensate for patient deficits in glycosylated αDG. […] Loading additional protein helps compensate for this deficiency and allows the assay to detect lower-level ranges. This is further stratified by patient genotype: more severe patients require greater protein loading. Western Blotting: For detection of target proteins αDG-Total and αDG-Glycan, membrane was probed simultaneously with primary antibodies AF6868 alpha Dystroglycan (R&D Systems) and IIH6C4 alpha Dystroglycan (Millipore), followed by fluorescent secondary antibodies IR800CW Mouse Anti-Sheep and IR680 Goat Anti-Mouse secondary antibodies (LiCor). The membrane was visualized in Odyssey CLx imager (LiCor) and intensities of the 700 (αDG-Glycan, red bands) and 800 (αDG-Total, green bands) nm channels were recorded. […] Here, amounts of glycosylated and total αDG are determined using standard curves, and an interpolated ratio is computed by dividing the amount of glycosylated αDG to the amount of total αDG. Data Analysis: Integration boxes were drawn using Image Studio software with specific dimensions over molecular weight range for standards, test articles and control samples. Data analysis was done in Excel (Microsoft). […] Healthy positive control (HPC) at 10 μg was deployed to monitor assay performance. […] FIG. 12 schematically illustrates a workflow for the Western Blot method. Briefly, biopsies are collected from a subject at a desired timepoint and homogenized. Gel electrophoresis is performed, followed by membrane transfer and blocking. Sample is incubated with the primary antibody followed by the secondary antibody. Detection and analysis are subsequently performed. […] A broader region of 70-260 kDa was used in prior iterations of the assay, including that described in Example 2 herein. […] Multiple sections of a single healthy donor TA biopsy sample are homogenized and the resulting lysate is pooled together and stored in single use aliquots at −80° C. These aliquots are used to generate a standard curve which is used in every assay. In addition, a quality control of 10 μg lysate is used to assess assay performance by measuring interpolatability to the standard curve. Methods: This study is an open label dose escalation study of patients with LGMD2I/R9. Part 1 of the study involved three dose cohorts (6 g QD, 6 g BID and 12 g BID) treated for 3 months. During Parts 2 (target maximal dose) and 3 (ongoing OLE), all patients received 12 g BID, dose adjusted for lower weight. FIG. 17 schematically illustrates the details of the clinical study. Briefly, the study includes 3 parts: a 90 day dose escalation phase (Part 1), a 90 day maximum dose phase (Part 2), and a 24 month long term extension phase (Part 3). In Part 1, 14 total patients are studied across three cohorts (6 g QD, 6 g BID, and 12 g BID ribitol). After Part 1, all patients transition to the highest dose, 12 g BID ribitol. Dosing adjustments in Part 2 were as follows: for patients with weight >70 kg: 12 g BID; for patients with weight between 50-70 kg: 9 g BID; and for patients with weight between 30-50 kg: 6 g BID.

patients with LGMD2I/R9 [5] = assay: Open label Phase 2 study of ribitol in LGMD2I/R9: safety and tolerability; assay type: in vivo, human
Excerpt: Objectives: The Phase 2 study is intended to explore the safety and tolerability of ribitol. Additionally, the feasibility and usefulness of clinical efficacy and pharmacodynamic (PD) assessments in patients with LGMD2I receiving ascending doses of ribitol will be investigated.
Methods: This study is an open label dose escalation study of patients with LGMD2I/R9. Part 1 of the study involved three dose cohorts (6 g QD, 6 g BID and 12 g BID) treated for 3 months. During Parts 2 (target maximal dose) and 3 (ongoing OLE), all patients received 12 g BID, dose adjusted for lower weight.
FIG. 17 schematically illustrates the details of the clinical study. Briefly, the study includes 3 parts: a 90 day dose escalation phase (Part 1), a 90 day maximum dose phase (Part 2), and a 24 month long term extension phase (Part 3). In Part 1, 14 total patients are studied across three cohorts (6 g QD, 6 g BID, and 12 g BID ribitol). After Part 1, all patients transition to the highest dose, 12 g BID ribitol. Dosing adjustments in Part 2 were as follows: for patients with weight >70 kg: 12 g BID; for patients with weight between 50-70 kg: 9 g BID; and for patients with weight between 30-50 kg: 6 g BID. Dosing adjustments in Part 3 were as follows: for patients with weight >50 kg: 12 g BID; and for patients with weight between 30-50 kg: 9 g BID.
Key inclusion criteria for the study include age between 12-55 years at enrollment; genetically confirmed LGMD2I/R9 diagnosis; body weight of at least 30 kg; and ability to complete a […] walk test in <12 seconds unaided for moderate disease, or unable to complete the 10MWT for severe disease.

[6] = maximum change over 3-15 months of treatment, FIG. 19

Q: Which results are given for `OC[C@@H](O)[C@@H](O)[C@@H](O)CO` [ribitol, (2R,3S,4S)-Pentane-1,2,3,4,5-pentol]?
A: αDG expression (total αDG signal, ~50-250 kDa) ([1]; FIG. 6B): increased; ratio of glycosylated αDG to total αDG ([1]; FIG. 6C): increased; change in serum CK ([2]; after 3 months of treatment, FIG. 20): notable change; sustained reduction in serum creatine kinase (CK) ([2]; over 15 months of ribitol treatment): > 75%; alpha-DG glycosylation [3]: increase; 10MWT velocity (patients with LGMD2I/R9 [4]): improvements; 100MTT (patients with LGMD2I/R9 [4]): improvements; NSAD (patients with LGMD2I/R9 [4]): improvements; 10MWT velocity (patients with LGMD2I/R9 [4]; listed as Ribitol): improvement; 100MTT (patients with LGMD2I/R9 [4]; listed as Ribitol): improvement; NSAD (patients with LGMD2I/R9 [4]; listed as Ribitol): improvement; change in glycosylated αDG vs baseline (glycosylated αDG; LGMD2I/R9 patients, oral ribitol 6 g QD to 12 g BID, after 90 days, sustained over 15 months): approximate doubling; also recorded: approximately double; levels of glycosylated αDG at 3 months (glycosylated αDG; Phase 2, 3 months, sustained over 15 months): increased; change in glycosylated αDG by genotype (glycosylated αDG; both L276I homozygous and other FKRP genotype LGMD2I/R9 patients): Approximate doubling; patients with a ≥100% increase (doubling) in glycosylated αDG levels vs pre-treatment (glycosylated αDG; [6]): 10 of 14; patients with increased glycosylated αDG levels vs pre-treatment baseline (glycosylated αDG; [6]): 13 of 14; αDG glycosylation in LGMD2I/R9 muscle biopsies (glycosylated αDG; treatment with ribitol, FIGS. 13A-13B): dramatically increases; adverse events leading to discontinuation or interruption in therapy (patients with LGMD2I/R9 [5]; 15 months of treatment): No adverse event led to a discontinuation or interruption in therapy; diarrhea, possibly or probably treatment-related (patients with LGMD2I/R9 [5]; 75% grade 1, 25% grade 2): 6 incidents; treatment-related serious adverse events, dose limiting toxicities or discontinuations (patients with LGMD2I/R9 [5]; across a range of ribitol dose levels): no observed treatment-related serious adverse events, dose limiting toxicities or discontinuations; nausea, possibly or probably treatment-related (patients with LGMD2I/R9 [5]; both grade 1): 2 incidents; vomiting, possibly or probably treatment-related (patients with LGMD2I/R9 [5]; both grade 1): 2 incidents; adverse events possibly or probably related to ribitol treatment (patients with LGMD2I/R9 [5]; during the course of the study): 12; adverse events recorded (patients with LGMD2I/R9 [5]; during the course of the study, 14 patients): 136; dehydration, possibly or probably treatment-related (patients with LGMD2I/R9 [5]; grade 1): 1 incident; dyspepsia, possibly or probably treatment-related (patients with LGMD2I/R9 [5]; grade 1): 1 incident; gastroenteritis, possibly or probably treatment-related (patients with LGMD2I/R9 [5]; grade 2): 1 incident; headaches, possibly or probably treatment-related (patients with LGMD2I/R9 [5]; grade 2): 1 incident; tolerability (patients with LGMD2I/R9 [5]; over 15 months of treatment): well-tolerated; also recorded: well tolerated; severe adverse events (patients with LGMD2I/R9 [5]; unrelated to the treatment): 3
